Assay results: US6110907A, “Synthesis of platinum complexes and uses thereof” (Dalian Institute of Chemical Physics, Chinese Academy of …, priority 1998, dated 2000)
Read-outs that look alike come from different tables or passages of the source.

Columns and labels:
liver = assay: 5-Day Parenteral Acute Toxicity Trial, liver histopathology; format: in vivo, ICR mice; conditions: 1/12 LD10/day for 5 days, i.p., per animal
Description: (§1) Conditions: Temperature: 22° C.±3° C.; Relative humidity: 30-70 T; Light: 12:12. Animals were housed in twos or threes depending on group numbers.
(§2) Histopathology of liver and kidney were examined for each animal.

kidney = assay: 5-Day Parenteral Acute Toxicity Trial, kidney histopathology; format: in vivo, ICR mice; conditions: 1/12 LD10/day for 5 days, i.p., per animal
Description: as §1, §2

[1] = background statement; cited from earlier work
[2] = cited from earlier work
CNE-2 = assay: In vitro antitumor activity, MTT assay, CNE-2; format: cell-based, human; conditions: CNE-2, 48 hours
Description: (§3) Drugs: Drugs to be tested were dissolved in complete medium at twice the highest concentration to be used, followed by filter (0.22 μm) sterilization. A series of log dilutions were made of each drug solution using complete medium and stored at r.t. until use.
(§4) Cells: L1210, H-522 (human lung), HT-29 (human colon), Hela, CC3 (human cervix) were obtained from the American Type Culture Collection (ATCC). CNE-1 and CNE-2 (human nasopharyngeal) were obtained from The Hong Kong Cancer Institute, The Chinese University of Hong Kong.
(§5) In vitro drug exposure: Trypsinised cells were adjusted to a concentration of 3×10^4 cells/ml in complete medium and for each drug to be tested, 0.1 ml of the cell suspension was added to each of 48 wells of a 96-well microculture plate. The plate was then incubated at standard conditions for 24 hours in order to allow the cells to attach to the bottom of the well. To each well of the control cultures, 0.1 ml of complete medium was added. […]
(§6) MTT assay: The MTT (tetrazolium) assay was used to determine the growth-inhibitory effects of different drugs. […] The amount of reduced MTT was determined by spectrophotometric means (540 nm).
(§7) Data analysis: The mean OD for all 48 control wells was determined. For each concentration of each drug, the mean OD of the 6 wells was determined and the "Percent of Control" values were determined and plotted. […]

CC3 = assay: In vitro antitumor activity, MTT assay, CC3; format: cell-based, human; conditions: CC3, 48 hours
Description: as §3, §4, §5, §6, §7

ICR mice [3] = assay: Toxicity testing, LD50 (Example 14); format: in vivo; conditions: in 0.9% NaCl, observed for 6 days
Description: The toxicity tests used ICR mice (30-40 g), each group containing 12-13 mice. […] The test and control compounds were dissolved in 0.9% NaCl to an appropriate concentration.

Hela = assay: In vitro antitumor activity, MTT assay, Hela; format: cell-based, human; conditions: 48 hours
Description: as §3, §4, §5, §6, §7

L1210 = assay: In vitro antitumor activity, MTT assay, L1210; format: cell-based, mouse; conditions: L1210, 48 hours
Description: as §3, §4, §5, §6, §7

CNE-1 = assay: In vitro antitumor activity, MTT assay, CNE-1; format: cell-based, human; conditions: CNE-1, 48 hours
Description: as §3, §4, §5, §6, §7

ICR mice [4] = assay: In vivo toxicity, LD50 (second series); conditions: male, intraperitoneal
Description: Animals: ICR mice, male, 30 g, 10 animals per test/control group.
Dose: Test/control drug were dissolved in normal saline. Four doses, each increasing by 10-20% were injected intraperitoneally into mice. 10 mice were used for each dose point.

HT29 = assay: In vitro antitumor activity, MTT assay, HT-29; format: cell-based, human; conditions: HT29, 48 hours
Description: as §3, §4, §5, §6, §7

H522 = assay: In vitro antitumor activity, MTT assay, H522; format: cell-based, human; conditions: H522, 48 hours
Description: as §3, §4, §5, §6, §7

SMILES	LIVER Normal (liver; female)	LIVER Normal (liver; male)	KIDNEY Normal (kidney; female)	KIDNEY Normal (kidney; male)	LD50 [1]	IC50 (CNE-2)	IC50 (CC3)	IC50 (Hela)	IC50 (L1210)	IC50 (CNE-1)	IC50 (HT29)	IC50 (H522)	further results
C[C@@]12C(=O)OC(=O)[C@]1(C)[C@H]1CC[C@@H]2O1 [Cantharidin, cantharidin]	√	√	√	√	1 mg/kg	–	–	–	–	–	–	–	side effects ([2]; background statement): nausea and vomiting, dysphagia, hematemesis, gross hematuria and dysuria; side effects ([2]; background statement, listed as cantharidin): severe side-effects such as nausea, vomiting and diarrhoea
N.N.O=C([O-])C1(C(=O)[O-])CCC1.[Pt+2] [Carboplatin, carboplatin]	√	√	√	√	–	126 µM	205 µM	244 µM	48.8 µM	174 µM	734 µM	287 µM	Solubility in water (pH 6): 10000 µg/mL; Solubility (water): ~10000 µg/mL; LD50 (ICR mice [3]): 190 mg/kg; side effects ([2]; in vivo): strongly irritates the gastrointestinal tract; LD50 (ICR mice [4]): 203.20 mg/kg
N.N.[Cl][Pt][Cl] [Cisplatin, cisplatin]	–	–	–	–	–	6.04 µM	6.25 µM	8.56 µM	1.63 µM	6.36 µM	38.3 µM	12.1 µM	–
O=C(O)C1C2CCC(O2)C1C(=O)O (centres unmarked) [corresponding dicarboxylic acid]	–	–	–	–	14 mg/kg	–	–	–	–	–	–	–	–
O=C1OC(=O)C2C3CCC(O3)C12 (centres unmarked) [demethyl cantharidin]	–	–	–	–	4 mg/kg	–	–	–	–	–	–	–	–
